Experimental data as given in patent US20230303570A1, “KINASE INHIBITORS AND USES THEREOF” (ABM Therapeutics Corporation, priority 2020, published 2023).
pIC50: −log10 of the molar value.

Each compound was assayed against HPK1 (MAP4K1) (Homo sapiens, UniProt Q92918) (assay: HPK1 (MAP4K1) kinase Lantha screen assay).
Format: biochemical
Method: The effect of the compounds on the activity of HPK1 (MAP4K1) kinase were assessed by Lantha screen assay. • 1. 1×kinase buffer was prepared (50 mM HEPES, pH 7.5, 10 mM MgCl2, 4 mM DT • 2. Compound and assay plates preparation: • 2-1) The compound was diluted to 100× of the final desired highest inhibitor concentration in reaction by 100% DMSO. For example, if a compound was tested at […], then a solution at 500 µM in DMSO was prepared in this step. • 2-2) For each tested compound, the compound was transferred in tubes to one well on a 96-well storage plate and serially diluted by transferring […] of 100% DMSO in the next well and so forth for a total of 6 concentrations. • 2-3) 100 μl of 100% DMSO were added to two empty wells to serve as no compound control and no enzyme control in the same 96-well plate. The resulting plate was labeled as the source plate. • 2-4) 40 μl of compound from source plate were transferred to a new 384-well Echo plate as the intermediate plate. 100 nl of each well from the 384-well Echo plate were transferred to a 384-well assay plate in duplicates. For example, A1 of the 384-well Echo plate was transferred to A1 and A2 of the 384-well plate. A2 of the 384-well Echo plate was transferred to A3 and A4 of the 384-well plate, and so on; • 3. Kinase reaction: a solution of MAP4K1 in 1× kinase buffer at 2-fold the final concentration of each reagent in the assay was prepared. 5 μl of kinase solution was added to each well of the assay plate, except for control wells without enzyme (add 5 μl of 1× kinase buffer instead). The plate was then shaken, then incubated at room temperature for 10 min. A substrate solution of Fluorescein-PKC and ATP in 1× kinase reaction buffer at 2-fold of the final concentration of each reagent desired in the assay was prepared. 5 μl of substrate solution was added to each well of the assay plate to start reaction. The plate was shaken, then covered, and incubated at room temperature for 90 minutes.
Kinase detection: detection solution of 2-fold of final concentration in Antibody Dilution Buffer was prepared. 10 μl of detection solution was added to each well of the assay plate to stop the reaction. The mixtures were mixed briefly with Centrifuge and incubated at room temperature 60 minutes before reading on a plate reader for fluorescence. Data was collected on Envision with excitation at 340 nm and emission at 520 nm and 495 nm.

Sequence of HPK1 (MAP4K1) (Q92918 whole entry, species assumed): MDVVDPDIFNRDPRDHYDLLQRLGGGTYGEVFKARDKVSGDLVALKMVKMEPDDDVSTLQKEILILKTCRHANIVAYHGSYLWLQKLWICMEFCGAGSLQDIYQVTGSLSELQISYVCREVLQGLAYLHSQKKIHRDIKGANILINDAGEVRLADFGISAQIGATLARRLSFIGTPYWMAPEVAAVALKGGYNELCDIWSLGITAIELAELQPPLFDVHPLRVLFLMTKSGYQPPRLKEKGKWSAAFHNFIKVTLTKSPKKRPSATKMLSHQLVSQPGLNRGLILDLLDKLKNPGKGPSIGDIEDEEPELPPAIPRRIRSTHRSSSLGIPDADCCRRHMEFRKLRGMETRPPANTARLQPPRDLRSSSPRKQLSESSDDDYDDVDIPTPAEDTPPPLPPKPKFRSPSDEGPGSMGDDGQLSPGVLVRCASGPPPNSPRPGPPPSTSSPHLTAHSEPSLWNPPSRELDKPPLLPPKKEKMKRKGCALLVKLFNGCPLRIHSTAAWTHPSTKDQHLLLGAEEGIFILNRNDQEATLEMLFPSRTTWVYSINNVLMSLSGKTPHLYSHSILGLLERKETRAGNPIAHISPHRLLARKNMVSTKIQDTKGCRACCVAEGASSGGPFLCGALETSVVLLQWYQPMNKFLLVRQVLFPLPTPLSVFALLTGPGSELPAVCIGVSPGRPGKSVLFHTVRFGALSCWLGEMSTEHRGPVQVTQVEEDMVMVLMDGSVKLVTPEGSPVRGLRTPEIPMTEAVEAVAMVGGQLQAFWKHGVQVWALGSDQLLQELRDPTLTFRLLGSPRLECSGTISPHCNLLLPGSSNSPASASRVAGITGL

Compound	pIC50
CNc1ncc2c(n1)N1CCN=C1C(c1cc(NC(=O)c3cc(C(F)(F)F)ncn3)ccc1C)=C2 [Compound 151, N-(4-methyl-3-(2-(methylamino)-8,9-dihydroimidazo[1′,2′:1,6]pyrido[2,3-d]pyrimidin-6-yl)phenyl)-6-(trifluoromethyl)pyrimidine-4-carboxamide]	5.00 to 7.00
CNc1cc2c(cn1)C=C(c1cc(NC(=O)c3cc(C(F)(F)F)ccn3)ccc1C)C1=NCCN12 [Compound 132, N-(4-methyl-3-(8-(methylamino)-1,2-dihydroimidazo[1,2-a][1,6]naphthyridin-4-yl)phenyl)-4-(trifluoromethyl)picolinamide]	5.00 to 7.00
Cc1ccc(NC(=O)c2cc(C(F)(F)F)ccn2)cc1C1=Cc2cnc(Nc3ccncc3)nc2N2CCN=C12 [Compound 214, N-(4-methyl-3-(2-(pyridin-4-ylamino)-8,9-dihydroimidazo[1′,2′:1,6]pyrido[2,3-d]pyrimidin-6-yl)phenyl)-4-(trifluoromethyl)picolinamide]	> 7.00
Cc1ccc(Nc2ncc3c(n2)N2CCN=C2C(c2cc(NC(=O)c4cc(C(F)(F)F)ccn4)ccc2C)=C3)c(C)n1 [Compound 211, N-(3-(2-((2,6-dimethylpyridin-3-yl)amino)-8,9-dihydroimidazo[1′,2′:1,6]pyrido[2,3-d]pyrimidin-6-yl)-4-methylphenyl)-4-(trifluoromethyl)picolinamide]	> 7.00
O=C(Nc1ccc(Cl)c(C2=Cc3cnc(NC4CCOCC4)nc3N3CCN=C23)c1)c1cc(C(F)(F)F)ccn1 [Compound 138, N-(4-chloro-3-(2-((tetrahydro-2H-pyran-4-yl)amino)-8,9-dihydroimidazo[1′,2′:1,6]pyrido[2,3-d]pyrimidin-6-yl)phenyl)-4-(trifluoromethyl)picolinamide]	> 7.00
CNc1ncc2c(n1)N1C(=NCC13CCCC3)C(c1cc(NC(=O)c3cc(C(F)(F)F)ccn3)ccc1C)=C2 [Compound 131, N-(4-methyl-3-(2′-(methylamino)-8′H-spiro[cyclopentane-1,9′-imidazo[1′,2′:1,6]pyrido[2,3-d]pyrimidin]-6′-yl)phenyl)-4-(trifluoromethyl)picolinamide]	> 7.00
Cc1ccc(NC(=O)c2cc(C(F)(F)F)ccn2)cc1C1=Cc2cnc(Nc3cnccc3O)nc2N2CCN=C12 [Compound 224, N-(3-(2-((4-hydroxypyridin-3-yl)amino)-8,9-dihydroimidazo[1′,2′:1,6]pyrido[2,3-d]pyrimidin-6-yl)-4-methylphenyl)-4-(trifluoromethyl)picolinamide]	5.00 to 7.00
Cc1cc(F)c(NC(=O)c2cccc(C(C)(C)C#N)c2)cc1C1=Cc2cnc(NC3COC3)nc2N2CCN=C12 [Compound 180, 3-(2-cyanopropan-2-yl)-N-(2-fluoro-4-methyl-5-(2-(oxetan-3-ylamino)-8,9-dihydroimidazo[1′,2′:1,6]pyrido[2,3-d]pyrimidin-6-yl)phenyl)benzamide]	> 7.00
Cc1cc(Nc2ncc3c(n2)N2CCN=C2C(c2cc(NC(=O)c4cc(C(F)(F)F)ccn4)ccc2C)=C3)ccn1 [Compound 212, N-(4-methyl-3-(2-((2-methylpyridin-4-yl)amino)-8,9-dihydroimidazo[1′,2′:1,6]pyrido[2,3-d]pyrimidin-6-yl)phenyl)-4-(trifluoromethyl)picolinamide]	> 7.00
CNc1ncc2c(n1)N1CCN=C1C(c1cc(NC(=O)c3cccc(C(C)(C)O)c3)ccc1C)=C2 [Compound 170, 3-(2-hydroxypropan-2-yl)-N-(4-methyl-3-(2-(methylamino)-8,9-dihydroimidazo[1′,2′:1,6]pyrido[2,3-d]pyrimidin-6-yl)phenyl)benzamide]	> 7.00
Cc1ccc(NC(=O)c2cc(C(F)(F)F)ccn2)cc1C1=Cc2cnc(Nc3cccnc3C)nc2N2CCN=C12 [Compound 209, N-(4-methyl-3-(2-((2-methylpyridin-3-yl)amino)-8,9-dihydroimidazo[1′,2′:1,6]pyrido[2,3-d]pyrimidin-6-yl)phenyl)-4-(trifluoromethyl)picolinamide]	> 7.00
Cc1ccc(NC(=O)c2cc(C(F)(F)F)ccn2)cc1C1=Cc2cnc(Nc3nnn[nH]3)nc2N2CCN=C12 [Compound 239, N-(3-(2-((1H-tetrazol-5-yl)amino)-8,9-dihydroimidazo[1′,2′:1,6]pyrido[2,3-d]pyrimidin-6-yl)-4-methylphenyl)-4-(trifluoromethyl)picolinamide]	5.00 to 7.00
CNc1ncc2c(n1)N1CCN=C1C(c1cc(NC(=O)c3cncc(C(F)(F)F)n3)ccc1C)=C2 [Compound 146, N-(4-methyl-3-(2-(methylamino)-8,9-dihydroimidazo[1′,2′:1,6]pyrido[2,3-d]pyrimidin-6-yl)phenyl)-6-(trifluoromethyl)pyrazine-2-carboxamide]	< 5.00
Cc1ccc(NC(=O)c2cc(C(F)(F)F)ccn2)cc1C1=Cc2cnc(NCC(C)(C)O)nc2N2CCN=C12 [Compound 113, N-(3-(2-((2-hydroxy-2-methylpropyl)amino)-8,9-dihydroimidazo[1′,2′:1,6]pyrido[2,3-d]pyrimidin-6-yl)-4-methylphenyl)-4-(trifluoromethyl)picolinamide]	> 7.00
Cc1ccc(NC(=O)c2cc(C(F)(F)F)ccn2)cc1C1=Cc2cnc(Nc3cn(C)nn3)nc2N2CCN=C12 [Compound 237, N-(4-methyl-3-(2-((1-methyl-1H-1,2,3-triazol-4-yl)amino)-8,9-dihydroimidazo[1′,2′:1,6]pyrido[2,3-d]pyrimidin-6-yl)phenyl)-4-(trifluoromethyl)picolinamide]	> 7.00
CNc1ncc2c(n1)N1CCN=C1C(c1cc(NC(=O)c3cc(C(C)(C)C#N)ccn3)c(F)cc1C)=C2 [Compound 165, 4-(2-cyanopropan-2-yl)-N-(2-fluoro-4-methyl-5-(2-(methylamino)-8,9-dihydroimidazo[1′,2′:1,6]pyrido[2,3-d]pyrimidin-6-yl)phenyl)picolinamide]	> 7.00
CNc1ncc2c(n1)N1CCN=C1C(c1ccc(F)c(C(=O)Nc3cc(C(F)(F)F)ccn3)c1)=C2 [Compound 278, 2-fluoro-5-(2-(methylamino)-8,9-dihydroimidazo[1′,2′:1,6]pyrido[2,3-d]pyrimidin-6-yl)-N-(4-(trifluoromethyl)pyridin-2-yl)benzamide]	< 5.00
Cc1ccc(NC(=O)c2cc(C(F)(F)F)ccn2)cc1C1=Cc2cnc(Nc3ccnn3C)nc2N2CCN=C12 [Compound 235, N-(4-methyl-3-(2-((1-methyl-1H-pyrazol-5-yl)amino)-8,9-dihydroimidazo[1′,2′:1,6]pyrido[2,3-d]pyrimidin-6-yl)phenyl)-4-(trifluoromethyl)picolinamide]	5.00 to 7.00
Cc1ccc(NC(=O)c2cc(C(F)(F)F)ccn2)cc1C1=Cc2cnc(Nc3ncccc3F)nc2N2CCN=C12 [Compound 220, N-(3-(2-((3-fluoropyridin-2-yl)amino)-8,9-dihydroimidazo[1′,2′:1,6]pyrido[2,3-d]pyrimidin-6-yl)-4-methylphenyl)-4-(trifluoromethyl)picolinamide]	5.00 to 7.00
CNc1ncc2c(n1)N1CCN=C1C(c1cc(NC(=O)c3cc(C(F)(F)F)ccn3)c(F)cc1C)=C2 [Compound 139, N-(2-fluoro-4-methyl-5-(2-(methylamino)-8,9-dihydroimidazo[1′,2′:1,6]pyrido[2,3-d]pyrimidin-6-yl)phenyl)-4-(trifluoromethyl)picolinamide]	> 7.00
Cc1ccc(NC(=O)c2cc(C(F)(F)F)ccn2)cc1C1=Cc2cnc(Nc3ccccc3F)nc2N2CCN=C12 [Compound 225, N-(3-(2-((2-fluorophenyl)amino)-8,9-dihydroimidazo[1′,2′:1,6]pyrido[2,3-d]pyrimidin-6-yl)-4-methylphenyl)-4-(trifluoromethyl)picolinamide]	> 7.00
Cc1cc(F)c(NC(=O)c2cccc(C(F)(F)F)n2)cc1C1=Cc2cnc(NC3COC3)nc2N2CCN=C12 [Compound 179, N-(2-fluoro-4-methyl-5-(2-(oxetan-3-ylamino)-8,9-dihydroimidazo[1′,2′:1,6]pyrido[2,3-d]pyrimidin-6-yl)phenyl)-6-(trifluoromethyl)picolinamide]	5.00 to 7.00
CNc1ncc2c(n1)N1CCN=C1C(c1cc(NC(=O)C3CC(C(F)(F)F)CCN3)ccc1C)=C2 (centres unmarked) [Compound 154, N-(4-methyl-3-(2-(methylamino)-8,9-dihydroimidazo[1′,2′:1,6]pyrido[2,3-d]pyrimidin-6-yl)phenyl)-4-(trifluoromethyl)piperidine-2-carboxamide]	< 5.00
